In patent publication US9511058B2, “Methods for using carboxamide, sulfonamide and amine compounds” (Rigel Pharmaceuticals, Inc., priority 2010, dated 2016) one finds EC50 data, which are given here for 23 compounds.

Bounds are passed on as bounds.

In one assay the target is AMPK. Put plainly: AMPK activation, enzyme-linked immunosorbent assay. Particulars: compounds of Table 1 (Table 6). In kind it is biochemical. The method, then: Compounds of Table 1 were assayed for their ability to activate AMPK using an enzyme-linked immunosorbent assay.
Compounds of Table 2 were assayed for their ability to activate AMPK using an enzyme-linked immunosorbent assay.
Compounds of Table 3 were assayed for their ability to activate AMPK using an enzyme-linked immunosorbent assay.
Compounds of Table 4 were assayed for their ability to activate AMPK using an enzyme-linked immunosorbent assay.
Compounds of Table 5 were assayed for their ability to activate AMPK using an enzyme-linked immunosorbent assay.
Turning to `O=C(O)c1ccc(CN2CCC(NC(=O)c3ccc(OC4CCN(c5ccc(C(F)(F)F)cc5)CC4)nc3)CC2)cc1` [1-46, 4-((4-(6-(1-(4-(trifluoromethyl)phenyl)piperidin-4-yloxy)nicotinamido)piperidin-1-yl)methyl)benzoic acid], the EC50 (in general, the concentration that produces a half-maximal response) was 1000 to 5000 nM.

In turn, `CN(C(=O)c1cc2cc(OC3CCN(c4ccc(C(F)(F)F)cc4)CC3)ccc2o1)C1CCN(Cc2cccc(C#N)c2)CC1` [1-110, N-(1-(3-cyanobenzyl)piperidin-4-yl)-N-methyl-5-(1-(4-(trifluoromethyl)phenyl)piperidin-4-yloxy)benzofuran-2-carboxamide] gave an EC50 below 100 nM. On the same count and under the same terms, in the case of `O=C(N[C@@H]1CCN(Cc2ccncc2)C1)c1cc2cc(OC3CCN(c4ccc(C(F)(F)F)cc4)CC3)ccc2o1` [1-122, (R)-N-(1-(pyridin-4-ylmethyl)pyrrolidin-3-yl)-5-(1-(4-(trifluoromethyl)phenyl)piperidin-4-yloxy)benzofuran-2-carboxamide] it was 100 to 500 nM. The same measure, in the same setting: in the case of `O=C(NC1CCN(Cc2ccccc2)CC1)c1cc2cc(OC3CCN(c4ccc(C(F)(F)F)cc4)CC3)ccc2o1` [1-75, N-(1-benzylpiperidin-4-yl)-5-(1-(4-(trifluoromethyl)phenyl)piperidin-4-yloxy)benzofuran-2-carboxamide] it was below 100 nM; in that of `CC(C)(C)OC(=O)N1CCC(NC(=O)c2cc3ccc(OC4CCN(c5ccc(C(F)(F)F)cc5)CC4)cc3o2)CC1` [1-82, tert-butyl 4-(6-(1-(4-(trifluoromethyl)phenyl)piperidin-4-yloxy)benzofuran-2-carboxamido)piperidine-1-carboxylate], 100 to 500 nM; in that of `CN(C(=O)c1cc2cc(OC3CCN(c4ccc(C(F)(F)F)cc4)CC3)ccc2o1)C1CCN(Cc2ccncc2)CC1` [1-104, N-methyl-N-(1-(pyridin-4-ylmethyl)piperidin-4-yl)-5-(1-(4-(trifluoromethyl)phenyl)piperidin-4-yloxy)benzofuran-2-carboxamide], 100 to 500 nM.

The assay is the same for the next values; noted with them: compounds of Table 2 (Table 7).
Compound `NC(=O)c1ccc(CN2CCC(NC(=O)c3ccc4[nH]c5c(c4c3)CN(Cc3ccc(C(N)=O)cc3)CC5)CC2)cc1` [2-49, 2-(4-carbamoylbenzyl)-N-(1-(4-carbamoylbenzyl)piperidin-4-yl)-2,3,4,5-tetrahydro-1H-pyrido [4,3-b]indole-8-carboxamide] showed an EC50 above 100000 nM.

`O=C(NC1CCN(Cc2ccncc2)CC1)c1ccc2[nH]c3c(c2c1)CN(Cc1ccccc1)CC3` [2-7, 2-benzyl-N-(1-(pyridin-4-ylmethyl)piperidin-4-yl)-2,3,4,5-tetrahydro-1H-pyrido[4,3-b]indole-8-carboxamide] displayed an EC50 of 5000 to 10000 nM. Still for that read-out and setting: the figure for `CC(C)(C)OC(=O)N1CCC(NC(=O)c2ccc3[nH]c4c(c3c2)CN(Cc2ccc(C(F)(F)F)cc2)CC4)CC1` [2-6, tert-butyl 4-(2-(4-(trifluoromethyl)benzyl)-2,3,4,5-tetrahydro-1H-pyrido[4,3-b]indole-8-carboxamido) piperidine-1-carboxylate] is 500 to 1000 nM. Compound `O=C(NC1CCN(S(=O)(=O)c2ccc(F)cc2)CC1)c1ccc2[nH]c3c(c2c1)CN(Cc1ccc(C(F)(F)F)cc1)CC3` [2-28, N-(1-(4-fluorophenyl-sulfonyl)piperidin-4-yl)-2-(4-(trifluoro-methyl)benzyl)-2,3,4,5-tetrahydro-1H-pyrido [4,3-b]indole-8-carboxamide] displayed an EC50 of 1000 to 5000 nM. Still for that read-out and setting: in the case of `NC(=O)c1ccc(CN2CCc3[nH]c4ccc(C(=O)NC5CCN(Cc6ccc(F)cc6)CC5)cc4c3C2)cc1` [2-48, 2-(4-carbamoylbenzyl)-N-(1-(4-fluorobenzyl)piperidin-4-yl)-2,3,4,5-tetrahydro-1H-pyrido [4,3-b]indole-8-carboxamide] it was above 100000 nM.

The assay is the same for the next values; noted with them: compounds of Table 3 (Table 8).
In the case of `O=C(c1ccncc1)N1CC2CC1CN2C(=O)c1nc2ccc(OC3CCN(c4ccc(C(F)(F)F)cc4)CC3)cc2o1` (centres unmarked) [3-11, (5-isonicotinoyl-2,5-diazabicyclo[2.2.1]heptan-2-yl)(6-(1-(4-(trifluoromethyl)phenyl)piperidin-4-yloxy)benzo[d]oxazol-2-yl)methanone], the concentration for a half-maximal effect (EC50) lay within 100 to 1000 nM. Same read-out and setting: the figure for `O=C(NC1CCN(Cc2ccncc2)CC1)c1nc2ccc(OC3CCN(c4ccc(C(F)(F)F)cc4)CC3)cc2o1` [3-3, N-(1-(pyridin-4-ylmethyl)piperidin-4-yl)-6-(1-(4-(trifluoromethyl)phenyl)piperidin-4-yloxy)benzo[d]oxazole-2-carboxamide] is below 100 nM.

The same assay, now with this note: compounds of Table 5 (Table 10).
`O=C(NC1CCN(Cc2ccccc2)CC1)c1ccc(OC2CCN(c3cccs3)CC2)c(Cl)c1` [5-10, N-(1-benzylpiperidin-4-yl)-3-chloro-4-(1-(thiophen-2-yl)piperidin-4-yloxy)benzamide]: the EC50 fell in the range of 1000 to 10000 nM. `O=C(NC1CCN(Cc2ccccc2)CC1)c1ccc(OC2CCN(Cc3cccc(C(F)(F)F)c3)CC2)c(F)c1` [5-59, N-(1-benzylpiperidin-4-yl)-3-fluoro-4-(1-(3-(trifluoromethyl)benzyl)piperidin-4-yloxy)benzamide] yielded an EC50 below 1000 nM. In the case of `COc1ccc(CN2CCC(Oc3ccc(C(=O)N4CCN(C(=O)OC(C)(C)C)CC4)cc3)CC2)cc1` [5-96, tert-butyl 4-(4-(1-(4-methoxybenzyl)piperidin-4-yloxy)benzoyl)piperazine-1-carboxylate], the EC50 fell in the range of 1000 to 10000 nM. On the same count and under the same terms, the figure for `COc1cc(C(=O)NC2CCN(Cc3ccccc3)CC2)ccc1OC1CCN(S(C)(=O)=O)CC1` [5-9, N-(1-benzylpiperidin-4-yl)-3-methoxy-4-(1-(methylsulfonyl)piperidin-4-yloxy)benzamide] is 20000 to 50000 nM; for `O=C(NC1CCN(Cc2ccccc2)CC1)c1ccc(OC2CCN(Cc3ccc(OC(F)(F)F)cc3)CC2)cc1` [5-63, N-(1-benzylpiperidin-4-yl)-4-(1-(4-(trifluoromethoxy)benzyl)piperidin-4-yloxy)benzamide] it is below 1000 nM; for `O=C(c1ccc(OC2CCN(Cc3ccccc3)CC2)cc1)N1CCN(c2ccccc2)CC1` [5-103, (4-(1-benzylpiperidin-4-yloxy)phenyl)(4-phenylpiperazin-1-yl)methanone] it is 20000 to 50000 nM. Same read-out and setting: in the case of `CC(C)(C)c1ccc(CN2CCC(Oc3ccc(C(=O)NC4CCN(Cc5ccccc5)CC4)cc3Cl)CC2)cc1` [5-16, N-(1-benzylpiperidin-4-yl)-4-(1-(4-tert-butylbenzyl)piperidin-4-yloxy)-3-chlorobenzamide] it was below 1000 nM; in that of `O=C(NC1CCN(Cc2ccccc2)CC1)c1ccc(OC2CCN(c3ccc(C(F)(F)F)cc3)CC2)c(Cl)c1` [5-17, N-(1-benzylpiperidin-4-yl)-3-chloro-4-(1-(4-(trifluoromethyl)phenyl)piperidin-4-yloxy)benzamide], below 1000 nM. On the same count and under the same terms, the figure for `Cn1cncc1CN1CCC(Oc2ccc(C(=O)NC3CCN(Cc4ccccc4)CC3)cc2Cl)CC1` [5-5, N-(1-benzylpiperidin-4-yl)-3-chloro-4-(1-((1-methyl-1H-imidazol-5-yl)methyl)piperidin-4-yloxy)benzamide] is 50000 to 100000 nM.

Turning to `O=C(NC1CCN(Cc2cccnc2)CC1)c1ccc(OC2CCN(c3ccc(C(F)(F)F)cc3)CC2)c(F)c1` [5-29, 3-fluoro-N-(1-(pyridin-3-ylmethyl)piperidin-4-yl)-4-(1-(4-(trifluoromethyl)phenyl)piperidin-4-yloxy)benzamide], the EC50 was below 1000 nM.
